Article PMC3493679 (Hepatology (Baltimore, Md.), 2012)
Like-named read-outs stand apart in the source and are kept apart here. Each block holds one compound with its values, some of them ahead of it.

Tests used:
xanthine oxidase = xanthine oxidase (Homo sapiens, UniProt P47989); test: xanthine oxidase assay, same ROS read-out as NOX assays; type: biochemical
human Nox4 = biological target: T1, human Nox4 (Homo sapiens, UniProt Q9NPH5); type: biochemical; conditions: read-out: Ki on Nox4; cell free membrane assay
T1 sequence (Q9NPH5 1-578): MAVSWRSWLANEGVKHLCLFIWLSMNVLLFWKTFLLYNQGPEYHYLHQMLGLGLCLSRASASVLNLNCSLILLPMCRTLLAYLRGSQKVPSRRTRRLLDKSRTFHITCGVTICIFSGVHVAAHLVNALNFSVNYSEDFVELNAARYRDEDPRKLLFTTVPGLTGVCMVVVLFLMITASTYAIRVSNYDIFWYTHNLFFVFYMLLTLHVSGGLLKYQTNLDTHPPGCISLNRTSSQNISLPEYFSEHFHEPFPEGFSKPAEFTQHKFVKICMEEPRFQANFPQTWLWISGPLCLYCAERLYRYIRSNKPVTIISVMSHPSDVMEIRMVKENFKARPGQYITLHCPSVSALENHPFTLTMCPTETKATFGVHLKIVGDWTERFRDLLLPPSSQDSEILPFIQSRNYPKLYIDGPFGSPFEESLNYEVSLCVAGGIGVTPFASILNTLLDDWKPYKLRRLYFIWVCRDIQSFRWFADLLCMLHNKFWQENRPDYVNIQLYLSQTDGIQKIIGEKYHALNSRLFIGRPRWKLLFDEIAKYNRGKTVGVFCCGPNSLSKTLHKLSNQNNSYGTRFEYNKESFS
T1 sequence (P13498 2-195 partner limits assumed): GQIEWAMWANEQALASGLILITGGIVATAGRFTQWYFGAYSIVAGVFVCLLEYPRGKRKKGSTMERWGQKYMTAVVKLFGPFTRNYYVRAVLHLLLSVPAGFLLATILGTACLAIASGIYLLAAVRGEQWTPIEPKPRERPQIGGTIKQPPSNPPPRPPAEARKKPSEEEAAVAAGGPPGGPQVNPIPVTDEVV

[1] = tested on: NOX2-driven neutrophil oxidative burst; test: neutrophil oxidative burst by flow cytometry in human whole blood; type: cell-based; conditions: up to 100uM
human Nox1 = biological target: T2, human Nox1 (Homo sapiens, UniProt Q9Y5S8); type: biochemical
T2 sequence (Q9Y5S8 1-564): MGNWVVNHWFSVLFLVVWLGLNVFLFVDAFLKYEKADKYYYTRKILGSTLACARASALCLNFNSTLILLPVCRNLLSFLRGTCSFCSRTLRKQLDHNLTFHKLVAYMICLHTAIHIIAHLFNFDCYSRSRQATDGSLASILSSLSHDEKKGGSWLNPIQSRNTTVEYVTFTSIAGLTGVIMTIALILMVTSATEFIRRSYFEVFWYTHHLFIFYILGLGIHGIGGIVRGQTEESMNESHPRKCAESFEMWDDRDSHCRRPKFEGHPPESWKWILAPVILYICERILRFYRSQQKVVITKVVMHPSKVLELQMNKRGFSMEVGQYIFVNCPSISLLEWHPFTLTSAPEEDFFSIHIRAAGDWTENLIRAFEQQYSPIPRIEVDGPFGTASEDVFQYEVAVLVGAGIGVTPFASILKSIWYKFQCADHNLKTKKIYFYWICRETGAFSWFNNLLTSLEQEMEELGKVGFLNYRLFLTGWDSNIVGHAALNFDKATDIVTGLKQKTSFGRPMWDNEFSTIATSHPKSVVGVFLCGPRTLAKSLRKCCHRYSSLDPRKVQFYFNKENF
T2 sequence (P13498 2-195 partner limits assumed): T1 sequence (P13498 2-195 partner limits assumed)

170 different proteins = test: in vitro off-target pharmacological profile; conditions: tested at 10 μM
HSCs [2] = test: ROS generation in DCFDA-loaded HSCs; type: cell-based, mouse; conditions: SOD1mu and WT HSCs, Ang II 10^−6 M, 20 μM
activated HSCs = test: gene expression in culture-activated primary HSCs; type: cell-based, mouse; conditions: 20 μM
[3] = tested on: CCl4-induced liver fibrosis; test: CCl4 model of liver fibrosis; type: in vivo, mice
Rac1 = Rac1 G-LISA activation assay in HSCs; type: cell-based, mouse; conditions: WT and SOD1mu HSCs, 20 μM, 24 hours
[4] = tested on: BDL-induced hepatic fibrosis; test: bile duct ligation; type: in vivo; conditions: WT and SOD1mu mice, 60 mg/kg daily from day 11
colI-GFP HSCs = test: collagen promoter-driven GFP expression in HSCs; type: cell-based, mouse; conditions: SOD1mu and WT HSCs, Ang II 10^−6 M, 20 μM, 24 hours
HSCs [5] = test: gene expression in Ang II stimulated HSCs; type: cell-based, mouse; conditions: Ang II 10^−6 M, 20 μM, 24 hours
[6] = CCl4 treated SOD1mu mice, 60 mg/kg daily
[7] = SOD1mu and WT mice, 60 mg/kg daily

Sequence of xanthine oxidase (P47989 whole entry, species assumed): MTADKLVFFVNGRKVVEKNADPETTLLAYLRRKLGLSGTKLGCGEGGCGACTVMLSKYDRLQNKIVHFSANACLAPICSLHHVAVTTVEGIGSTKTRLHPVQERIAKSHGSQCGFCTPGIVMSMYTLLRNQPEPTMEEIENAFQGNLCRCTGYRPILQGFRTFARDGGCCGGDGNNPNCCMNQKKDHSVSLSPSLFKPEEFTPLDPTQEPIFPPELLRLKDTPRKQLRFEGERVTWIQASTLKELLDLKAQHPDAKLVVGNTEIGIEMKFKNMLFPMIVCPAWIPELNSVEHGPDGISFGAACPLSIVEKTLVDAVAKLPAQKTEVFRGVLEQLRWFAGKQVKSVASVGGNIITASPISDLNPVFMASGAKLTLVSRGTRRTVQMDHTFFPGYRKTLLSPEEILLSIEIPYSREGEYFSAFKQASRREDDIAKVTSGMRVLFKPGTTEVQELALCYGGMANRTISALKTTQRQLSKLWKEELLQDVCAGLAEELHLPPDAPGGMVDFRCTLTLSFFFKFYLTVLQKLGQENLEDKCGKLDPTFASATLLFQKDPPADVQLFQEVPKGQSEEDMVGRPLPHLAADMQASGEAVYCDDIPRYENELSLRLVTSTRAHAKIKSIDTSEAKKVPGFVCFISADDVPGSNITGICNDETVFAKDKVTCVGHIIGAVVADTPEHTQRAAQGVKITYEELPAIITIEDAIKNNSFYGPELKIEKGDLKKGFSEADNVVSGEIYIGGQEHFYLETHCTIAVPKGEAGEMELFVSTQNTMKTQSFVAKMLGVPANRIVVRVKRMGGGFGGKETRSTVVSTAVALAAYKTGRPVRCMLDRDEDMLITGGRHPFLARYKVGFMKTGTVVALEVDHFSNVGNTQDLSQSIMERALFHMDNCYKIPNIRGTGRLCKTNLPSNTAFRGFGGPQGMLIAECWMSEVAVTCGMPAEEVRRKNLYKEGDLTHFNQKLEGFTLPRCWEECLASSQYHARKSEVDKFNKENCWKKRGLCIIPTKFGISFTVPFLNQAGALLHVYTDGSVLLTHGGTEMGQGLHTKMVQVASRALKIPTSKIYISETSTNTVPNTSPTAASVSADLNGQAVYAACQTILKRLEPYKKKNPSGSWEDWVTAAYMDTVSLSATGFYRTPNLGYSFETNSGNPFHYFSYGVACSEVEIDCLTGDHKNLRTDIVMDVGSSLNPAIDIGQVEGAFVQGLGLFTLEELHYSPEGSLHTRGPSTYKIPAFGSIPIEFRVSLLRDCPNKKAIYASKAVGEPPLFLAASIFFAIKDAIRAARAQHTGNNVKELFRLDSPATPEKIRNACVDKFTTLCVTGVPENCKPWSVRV

Ki (xanthine oxidase; read-out: Ki on xanthine oxidase): 50 nM | Ki (human Nox4): 70 ± 10 nM
Compound: c1ccc([I+]c2ccccc2)cc1 [DPI, Diphenyliodonium, reference compound]

Compound: CN(C)c1cccc(-c2c3c(=O)n(-c4ccccc4Cl)[nH]c3cc(=O)n2C)c1 [GKT137831, 2-(2-chlorophenyl)-4-[3-(dimethylamino)phenyl]-5-methyl-1H-pyrazolo[4,3-c]pyridine-3,6(2H,5H)-dione]
inhibition of neutrophil oxidative burst [1]: did not significantly inhibit | Ki (human Nox1): 110 ± 30 nM | inhibition of off-target proteins (170 different proteins): did not show any significant inhibition of any tested target protein | Ang II induced ROS generation (HSCs [2]): suppressed | NOX4 and NOX1 mRNA expression (activated HSCs; activated SOD1mu HSCs): suppressed | collagen α1(I) and Acta2 mRNA expression (activated HSCs; activated SOD1mu and WT HSCs): reduced | liver inflammation and injury ([3]; CCl4 treated SOD1mu and WT mice, 60 mg/kg daily): inhibited to similar lower levels | hepatic 4-HNE levels [3, 6]: suppressed | hepatic MDA levels (TBARS) [3, 6]: suppressed | hepatic mRNA expression of TNF-α [3, 6]: suppressed | serum ALT levels [3, 6]: reduced | macrophage infiltration and activation (F4/80, CD68) ([3]; CCl4 treated mice, 60 mg/kg daily): prevented macrophage infiltration and activation | hepatic collagen deposition (Sirius red staining) [3, 7]: reduced | hepatic mRNAs of collagen α1(I), TIMP-1 and TGF-β [3, 7]: reduced the induction of those genes to the same lower levels | CCl4-induced liver fibrosis ([3]; SOD1mu and WT mice, 60 mg/kg intragastric daily, last half of CCl4 treatment): attenuated | hepatic α-SMA expression ([3]; SOD1mu mice, immunohistochemistry and immunoblotting, 60 mg/kg daily): markedly decreased | Rac1 activity after Ang II stimulation (Rac1): no effect | Ki (xanthine oxidase): > 100000 nM | scavenging of superoxide (O2•−) (xanthine oxidase): inability to scavenge superoxide | BDL-induced hepatic fibrosis [4]: decreased | Ang II induced GFP fluorescence (collagen α1(I) promoter) (colI-GFP HSCs): suppressed | Ang II induced NOX1 and NOX4 mRNA expression (HSCs [5]; SOD1mut and WT HSCs): suppressed | Ang II induced collagen α1(I) and TIMP-1 mRNA expression (HSCs [5]; WT and SOD1mu HSCs): blocked
